Measurements: paper PMC12700550, “DLL4^+ neutrophils promote Notch1-mediated endothelial PANoptosis to exacerbate acute lung injury in sepsis” (The Journal of Clinical Investigation, 2025)
Values joined by “and” are separate entries in the source; they are usually repeats but may differ in a detail not shown here. Identical values can stand only once.

Legend:
C57BL/6 mice, CLP sepsis = assay: Serum aspartate aminotransferase (AST), CLP mice; type: in vivo, mouse; design: serum AST (Figure 6B): unit not given here; conditions: 20 h; for serum AST (Figure 6B): 10 mg/kg NDI, individual mice
Description: Sepsis was induced in mice by cecal ligation and puncture (CLP) as described previously ([45], [46]). Mice were anesthetized with isoflurane to a surgical plane and placed in a supine position. CLP was performed through a midline laparotomy. The abdomen was shaved and disinfected. Through a 2 cm midline incision, the cecum was exposed and then ligated with a 4-0 silk suture 1 cm proximal from the distal cecal extremity. […] A small amount of cecal content was extruded through both holes, and the ligated cecum was returned to the peritoneal cavity. The wound was closed in layers. […] A small amount of cecal content was extruded. […] Vehicle groups received an equivalent volume of PBS, while treatment groups received NDI 10 mg/kg in […] PBS via retro-orbital injection after CLP. This dose was chosen primarily on the basis of our laboratory’s prior experience, we have consistently used this dose in mouse CLP models with reproducible efficacy and without observable toxicity ([39], [44]). Sham-operated animals underwent a laparotomy without CLP. After closure, the mice received a subcutaneous injection of 0.5 mL of normal saline to overcome surgery-induced dehydration. […] All mice were subcutaneously injected with a single dose of 0.1 mg/kg buprenorphine after CLP. Serum levels of alanine aminotransferase, aspartate aminotransferase, and lactate dehydrogenase were determined using specific colorimetric enzymatic assays (Pointe Scientific Inc.) according to the manufacturer’s instructions.

[1] = system: DLL4 expression on TLR4^–/– BMDNs; assay: Frequency of DLL4^+ neutrophils, TLR4^–/– mouse BMDNs, flow cytometry; type: cell-based; conditions: 12 h
Description: Male 8-week-old C57BL/6 mice were purchased from Charles River Laboratories. TLR4^–/– mice were obtained from Kevin Tracey (Feinstein Institutes for Medical Research). Mice were housed at approximately 23°C with a 12-hour light/12-hour dark cycle and given standard laboratory food and water ad libitum. All experiments were performed following the NIH guidelines for experimental animals. The animal protocol was approved by the Feinstein Institutes’ Institutional Animal Care and Use Committee. Animals were randomly assigned to the sham, vehicle, or adoptive transfer groups.
Mice were anesthetized by 2% isoflurane inhalation, and the femora and tibiae were dissected. […] The purity of the sorted neutrophils was assessed by staining of the cells with APC-Ly6G antibody (clone 1A8, BioLegend) using a BD LSRFortessa flow cytometer (BD Biosciences).
In the time course experiments, BMDNs (1 × 10^6) were stimulated with eCIRP (1 μg/mL) for 2, 4, 6, and 12 hours. […] Single-cell suspensions were then stained with APC-conjugated anti–mouse Ly6G (clone 1A8, catalog 127614, BioLegend) and PE-conjugated anti-DLL4 (clone HMD4-1, catalog 130807, BioLegend), and analyzed by flow cytometry (BD LSRFortessa, BD Biosciences) to detect DLL4^+ neutrophils (Ly6G^+DLL4^+). […] The isolated lung cells were counted using a microscope (Eclipse TS100, Nikon). […]

Molecule | effect on serum AST (C57BL/6 mice, CLP sepsis; DLL4^+ neutrophil-injected CLP mice, 10 mg/kg) | serum AST (Figure 6B) (C57BL/6 mice, CLP sepsis; DLL4^+ neutrophils + CLP) | serum AST (Figure 6B) (C57BL/6 mice, CLP sepsis; DLL4^– neutrophils + CLP) | frequency of DLL4^+ neutrophils (Figure 1E) ([1]; TLR4^–/– (KO) BMDNs, 1 μg/mL eCIRP, individual replicates) | eCIRP-mediated induction of DLL4^+ neutrophils ([1]; TLR4^–/– neutrophils, 1 μg/mL)
ECAGSPCHNGGTCEDGI [NDI] | significantly reduced the serum levels of hepatic and cell injury markers and proinflammatory cytokines | 63.648 and 54.808 and 59.67 and 72.046 and 53.04 and 50.83 and 58.786 and 52.156 and 37.57 and 64.974 and 46.852 and 66.3 and 46.41 and 34.918 and 42.432 and 51.272 | 66.3 and 67.184 and 102.102 and 72.046 and 55.25 and 53.482 and 43.758 and 50.83 |  | 
eCIRP: extracellular cold-inducible RNA-binding protein; recombinant murine, produced in our laboratory (protein, UniProt P60824 1-172, looked up) Cold-inducible RNA-binding …: MASDEGKLFVGGLSFDTNEQALEQVFSKYGQISEVVVVKDRETQRSRGFGFVTFENIDDAKDAMMAMNGKSVDGRQIRVDQAGKSSDNRSRGYRGGSAGGRGFFRGGRSRGRGFSRGGGDRGYGGGRFESRSGGYGGSRDYYASRSQGGSYGYRSSGGSYRDSYDSYATHNE |  |  |  | 1.63% and 1.97% and 2.11% and 0.98% and 0.25% and 1.21% | significantly abrogated in TLR4^–/– neutrophils
